pIC50: −log10 of the molar value.
Columns and labels:
[1] = system: 6/50 antibody; assay: Cross-reactivity of 6/50 antibody with OA analogues in competitive ELISA (FIG. 9); assay type: binding, mouse; conditions: toxins in 40% MEOH
Method: FIG. 9A Assay wells were coated with OA and incubated with a fixed concentration of 6/50 IgG and varying amounts of each toxin in 40% MEOH.
FIG 9B & 9C Assay wells were coated with purified antiidiotypic antibody (1/59) F(ab')2 fragments (5 μg/ml) and incubated with a fixed concentration of mAb 6/50 (100 ng/ml) and varying amounts of OA analogues in 40% MEOH.
In FIG. 9A, the assay wells were coated with OA and incubated with a fixed concentration of 6/50 IgG and varying amounts of each toxin in 40% MEOH. Bound antibody was detected with HRP-conjugated anti-mouse IgG. Toxins used in this competitive ELISA were generously donated by Dr. Takeshi Yasumoto (Tohoku University, Japan).
For FIG. 9B and 9C, the assay wells were coated with purified anti-idiotypic (1/59) F(ab')2 (5μg/ml) and incubated with a fixed concentration of antibody 6/50 (100 ng/ml) and varying amounts of okadaic acid analogues in 40% MEOH. Bound 6/50 IgG was detected with HRP-conjugated anti-mouse IgG Fc fragment specific antisera.

[2] = system: F(ab')2 fragments of 6/50 IgG; assay: Competition ELISA, Example II: free OA versus 1/59 IgG for binding to solid-phase 6/50 F(ab')2; design: species or system mouse; conditions: free OA 0-10 μg/ml in 10% MeOH, 1/59 500 ng/ml
Method: In the reverse assay, 96-well microtiter plates are coated with 100 μl of 10 μg/ml of F(ab')2 fragments of 6/50 IgG in 0.05M sodium carbonate bicarbonate buffer, pH 9.6, overnight at 4° C. The unbound F(ab')2 fragments are washed off with Tris-buffered saline and the remaining binding sites are saturated with 200 μl of 1% powdered-milk in Tris-saline (TS-MILK) for one hour at 37° C. After washing, the wells are incubated simultaneously with 50 μl of a fixed amount of anti-idiotypic IgG 1/59 (500 ng/ml) and 50 μl of free OA diluted in 10% methanol (MeOH) at increasing concentrations (0-10 μg/ml) for one hour at 37° C. After the unbound antibody and antigen are washed off, 100 μl of a peroxidase conjugated goat anti-mouse IgG Fc-fragment-specific antiserum is added for one hour at 37° C.
The colorimetric reaction is developed upon the addition of 0.03% H2 O2 in 0.1 M sodium citrate buffer, pH 7.0, containing 0.1% OPD. The reaction is stopped with 3 N H2 SO4 and the color intensity measured at a wavelength of 492 nm using a BioRad® ELISA reader.

[3] = molecular target: T1, protein phosphatase-2A (PP2A) catalytic subunit (Oryctolagus cuniculus, UniProt P67777); assay: Standard phosphorylase a phosphatase assay, PP2A; assay type: biochemical, rabbit; conditions: standard commercial preparation of okadaic acid; read-out: IC50 for PP2A inhibition
T1 construct: Homogeneous PP-1 and -2A catalytic subunits are purified from rabbit skeletal muscle; from tissue; host or cells: rabbit skeletal muscle
Method: (§1) The biological activity of OA was assayed by the ability of this toxin to inhibit dephosphorylation of ^32 P-radiolabelled glycogen phosphorylase (E.C. 2.4.1.1) by protein phosphatases (E.C. 3.1.3.16) in the standard phosphorylase phosphatase assay.
(§2) Phosphorylase (50 mM) is dialyzed extensively against NaF (15 mM) to block endogenous phosphatase activity. The protein is diluted to 3 mg/ml (30 pmol/μl ) in Tris HCl (50 mM, pH 7.0) containing ethylenediamine tetra-acetic acid (EDTA, 0.1 mM), bovine serum albumin (1 mg/ml), 2-mercaptoethanol (0.2% v/v) and caffeine (15mM). An incubation comprising 10 μl protein phosphatase-1 or -2A (PP2A, 1 mU/ml in Tris HCl, pH 7.0) and 10 μl phosphatase inhibitor (in Tris HCl, pH 7.0) is carried out for 10 minutes at 30° C. An aliquot (10 μl) of phosphorylase (30 pmol/μl, specific radioactivity >0.6×10^6 dpm/nmol) is added to start the reaction, which is terminated after 10 minutes by adding 200 μl trichloroacetic acid (20% w/v,TCA). The suspension is vortexed, stood on ice for 1 minute and centrifuged at 15,000g for 2 minutes. An aliquot (200 μl) of supernatant is added to 1 ml scintillant and counted. One milliunit(mU) of protein phosphatase activity releases 1 nmol phosphate from phosphorylase per minute. […]

[4] = system: 6/50 IgG; assay: Competitive ELISA, Example IV: solid-phase OA versus free OA for binding to 6/50 IgG; design: species or system mouse; conditions: OA standards 0-30 ng/ml in 10% MeOH
Method: This assay is based on the competition between solid-phase attached OA and free OA (analyte) for binding to a limited number of binding sites on 6/50 IgG in solution.
Thus, 96-well microtiter plates are coated with 100 μl of OA-OVAL (10 μg/ml) in 0.05M sodium carbonate bicarbonate buffer, pH 9.6, overnight at 4° C. The unbrund OA-OVAL is washed off with Tris-buffered saline and the remaining binding sites are saturated with 200 μl of TS-MILK for one hour at 37° C. After washing, the wells are incubated simultaneously with 50 μl of OA standards (0-30 ng/ml) diluted in 10% MeOH and applied in the presence of 50 μl of limiting amounts of 6/50 IgG for one hour at 37° C. After the unbound antibody and antigen are washed off, 100 μl of a peroxidase conjugated goat anti-mouse IgG antiserum diluted in TS-MILK is added and incubated for one hour at 37° C.
Ihe colorimetric reaction is developed upon the add:tion of 0.03% H2 O2 in 0.1 M sodium citrate buffer, pH 7.0, containing 0.1% OPD. The reaction is stopped with 3 N H2 SO4 and the color intensity measured at a wavelength of 492 nm using a BioRad ELISA reader.

[5] = molecular target: protein phosphatase-1 (PP1) catalytic subunit; assay: Standard phosphorylase a phosphatase assay, PP1; assay type: biochemical, rabbit; conditions: standard commercial preparation of okadaic acid; read-out: IC50 for PP1 inhibition
Method: as §1, §2

[6] = Solubility of OA; assay type: physicochemical
Excerpt: It is obvious that methanol has a deleterious effect on 6/50 IgG binding to OA since the sensitivity of OA detection in the presence of 40% MeOH drops considerably when compared with 10% MeOH content. The addition of 10% MeOH seems to be the optimal for this assay. Absence of MeOH decreases OA solubility and thus the slope of the standard curve.

T1 sequence (P67777 whole entry): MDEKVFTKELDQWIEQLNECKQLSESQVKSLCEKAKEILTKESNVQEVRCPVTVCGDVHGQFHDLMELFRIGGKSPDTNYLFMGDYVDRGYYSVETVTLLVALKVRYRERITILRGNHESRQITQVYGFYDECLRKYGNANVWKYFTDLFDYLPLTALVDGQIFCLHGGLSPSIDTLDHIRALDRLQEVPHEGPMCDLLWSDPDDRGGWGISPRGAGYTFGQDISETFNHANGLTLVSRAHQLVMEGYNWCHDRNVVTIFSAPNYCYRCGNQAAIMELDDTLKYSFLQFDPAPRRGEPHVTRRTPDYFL

Row | SMILES | binding to 6/50 antibody relative to okadaic acid (cross-reactivity) [1] | inhibition of 1/59 IgG binding to solid-phase bound 6/50 IgG F(ab')2 [2] | pIC50 [3] | competition with solid-phase fixed OA for binding to 6/50 [4] | pIC50 [5] | solubility [6]
1 | C=C1C(C(CC(C)C2OC3(CCCCO3)CCC2C)OC(C)=O)OC2CCC3(CCC(C=CC(C)C4CC(C)=CC5(OC(CC(C)(OC(C)=O)C(=O)O)CCC5OC(C)=O)O4)O3)OC2C1OC(C)=O (stereo not shown) [tetra acetyl okadaic acid] | significantly lower affinity | – | – | – | – | –
2 | C=C1[C@@H](O)[C@@H]2O[C@]3(CC[C@H](/C=C/[C@@H](C)[C@@H]4CC(C)=C[C@@]5(O[C@H](C[C@@](C)(O)C(=O)O)CC[C@H]5O)O4)O3)CC[C@H]2O[C@@H]1[C@@H](O)C[C@H](C)[C@H]1O[C@@]2(CCCCO2)CC[C@H]1C [okadaic acid] | – | clearly inhibited | 9.70 | dose-dependent manner | 7.72 | only soluble in the presence of organic solvents
3 | C=C1C(O)C2OC3(CCC(C=CC(C)C4CC(C)=CC5(OC(CC(C)(O)C(=O)O)CCC5O)O4)O3)CCC2OC1C(O)CC(C)C1OC2(CCC1C)OCCCC2C (stereo not shown) [DTX-1, 35-methyl-okadaic acid] | significantly lower affinity | – | – | – | – | –
